Source: PubChem BioAssay AID248 (DTP/NCI, 2004)
Several values for one entry are separate records, joined by “and”; a condition that tells them apart may be missing. Identical values can stand only once. Inconclusive results and toxic doses are left out. Rule as the data show it: active = T/C of 150% or more; inactive = T/C below 125%.

Tested on: L1210 leukemia ip in BDF1 mice, survival T/C
Test: NCI In Vivo Anticancer Drug Screen. Data for tumor model L1210 Leukemia (intraperitoneal) in B6D2F1 (BDF1) mice
Conditions: endpoint: mean survival time, higher = longer survival
Procedure, shortened: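 Ratio derived from survival: compound-dosed mice over vehicle-dosed mice, all bearing a transplantable tumor.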

[1] = dose: 100.0 mg/kg/injection, schedule: Q04DX003 (ip), vehicle: saline with Tween-80
[2] = dose: 200.0 mg/kg/injection, schedule: Q01DX009 (ip), vehicle: saline with Tween-80
[3] = dose: 400.0 mg/kg/injection, schedule: Q01DX009 (ip), vehicle: saline with Tween-80
[4] = dose: 400.0 mg/kg/injection, schedule: Q04DX003 (ip), vehicle: saline with Tween-80
[5] = dose: 100.0 mg/kg/injection, schedule: Q01DX009 (ip), vehicle: Klucel (hydroxypropylcellulose) (HPC)
[6] = dose: 100.0 mg/kg/injection, schedule: Q04DX002 (ip), vehicle: Klucel (hydroxypropylcellulose) (HPC)
[7] = dose: 100.0 mg/kg/injection, schedule: Q04DX003 (ip), vehicle: Klucel (hydroxypropylcellulose) (HPC)
[8] = dose: 200.0 mg/kg/injection, schedule: Q01DX009 (ip), vehicle: Klucel (hydroxypropylcellulose) (HPC)
[9] = dose: 200.0 mg/kg/injection, schedule: Q04DX002 (ip), vehicle: Klucel (hydroxypropylcellulose) (HPC)
[10] = dose: 200.0 mg/kg/injection, schedule: Q04DX003 (ip), vehicle: Klucel (hydroxypropylcellulose) (HPC)
[11] = dose: 400.0 mg/kg/injection, schedule: Q01DX009 (ip), vehicle: Klucel (hydroxypropylcellulose) (HPC)
[12] = dose: 400.0 mg/kg/injection, schedule: Q04DX002 (ip), vehicle: Klucel (hydroxypropylcellulose) (HPC)
[13] = dose: 400.0 mg/kg/injection, schedule: Q04DX003 (ip), vehicle: Klucel (hydroxypropylcellulose) (HPC)
[14] = dose: 100.0 mg/kg/injection, schedule: Q01DX009 (ip), vehicle: saline with Tween-80
[15] = dose: 50.0 mg/kg/injection, schedule: Q01DX001 (ip), vehicle: saline
[16] = dose: 100.0 mg/kg/injection, schedule: Q01DX001 (ip), vehicle: saline
[17] = dose: 200.0 mg/kg/injection, schedule: Q01DX001 (ip), vehicle: saline
[18] = dose: 400.0 mg/kg/injection, schedule: Q01DX001 (ip), vehicle: saline

Measured: T/C

Cc1ccc(NC(=O)Nc2cccc(C(F)(F)F)c2)cc1NC(=O)Nc1cccc(C(F)(F)F)c1
inactive: [1] 93 % of control | [2] 92 % of control | [3] 103 % of control | [4] 88 % of control

CCOS(C)(=O)=O
inactive: dose: 50.0 mg/kg/injection, schedule: Q01DX009 (ip), vehicle: saline 98 % of control | dose: 100.0 mg/kg/injection, schedule: Q01DX009 (ip), vehicle: saline 101 % of control | dose: 100.0 mg/kg/injection, schedule: Q04DX003 (ip), vehicle: alcohol 102 % of control | dose: 200.0 mg/kg/injection, schedule: Q01DX009 (ip), vehicle: saline 104 % of control | dose: 200.0 mg/kg/injection, schedule: Q04DX003 (ip), vehicle: alcohol 102 % of control

CC/C(=C(\CC)c1ccc(OCCN(CCCl)CCCl)cc1)c1ccc(OCCN(CCCl)CCCl)cc1
inactive: dose: 25.0 mg/kg/injection, schedule: Q04DX002 (ip), vehicle: saline with Tween-80 90 % of control | dose: 50.0 mg/kg/injection, schedule: Q04DX002 (ip), vehicle: saline with Tween-80 94 % of control | dose: 100.0 mg/kg/injection, schedule: Q04DX002 (ip), vehicle: saline with Tween-80 101 % of control

CN(C)c1ncnc2[nH]cc([N+](=O)[O-])c12
inactive: dose: 100.0 mg/kg/injection, schedule: Q01DX001 (ip), vehicle: carboxymethylcellulose (CMC) 93 % of control | dose: 200.0 mg/kg/injection, schedule: Q01DX001 (ip), vehicle: carboxymethylcellulose (CMC) 93 % of control

OCc1ccccc1Cn1ccnc1
inactive: dose: 100.0 mg/kg/injection, schedule: Q01DX001 (ip), vehicle: Klucel (hydroxypropylcellulose) (HPC) 111 % of control | [5] 97 % of control and 105 % of control | [6] 102 % of control and 103 % of control | [7] 105 % of control | dose: 200.0 mg/kg/injection, schedule: Q01DX001 (ip), vehicle: Klucel (hydroxypropylcellulose) (HPC) 103 % of control | [8] 94 % of control and 87 % of control | [9] 97 % of control and 88 % of control | [10] 111 % of control | dose: 400.0 mg/kg/injection, schedule: Q01DX001 (ip), vehicle: Klucel (hydroxypropylcellulose) (HPC) 99 % of control | [11] 94 % of control and 96 % of control | [12] 97 % of control and 100 % of control | [13] 110 % of control

OCc1cnc[nH]1
inactive: dose: 3.0 mg/kg/injection, schedule: Q04DX002 (ip), vehicle: saline 123 % of control | dose: 6.0 mg/kg/injection, schedule: Q04DX002 (ip), vehicle: saline 97 % of control | dose: 12.0 mg/kg/injection, schedule: Q04DX002 (ip), vehicle: saline 94 % of control | dose: 25.0 mg/kg/injection, schedule: Q04DX002 (ip), vehicle: saline 97 % of control and 121 % of control | dose: 50.0 mg/kg/injection, schedule: Q04DX002 (ip), vehicle: saline 105 % of control

O=c1cc(C(F)(F)F)[nH]c2ccc(F)cc12
inactive: dose: 5.0 mg/kg/injection, schedule: Q04DX003 (ip), vehicle: saline with Tween-80 102 % of control | dose: 10.0 mg/kg/injection, schedule: Q04DX003 (ip), vehicle: saline with Tween-80 90 % of control | dose: 20.0 mg/kg/injection, schedule: Q04DX003 (ip), vehicle: saline with Tween-80 97 % of control

CN1C2CCC1CC(OC(=O)C(CO)c1ccccc1)C2 (configuration not stated)
inactive: dose: 31.25 mg/kg/injection, schedule: Q01DX Z (ip), vehicle: saline 100 % of control | dose: 62.5 mg/kg/injection, schedule: Q01DX Z (ip), vehicle: saline 102 % of control | dose: 125.0 mg/kg/injection, schedule: Q01DX Z (ip), vehicle: saline 98 % of control

CCOC(=O)C(=O)Cc1cnc2ccccc2n1
inactive: [5] 113 % of control | [7] 97 % of control | [8] 94 % of control | [10] 96 % of control | [11] 92 % of control | [13] 100 % of control

c1ccc(-c2nn(-c3ccccc3)[n+](-c3cccc4ccccc34)n2)cc1
inactive: dose: 1.0 mg/kg/injection, schedule: Q01DX015 (ip), vehicle: carboxymethylcellulose (CMC) 100 % of control | dose: 2.0 mg/kg/injection, schedule: Q01DX015 (ip), vehicle: carboxymethylcellulose (CMC) 102 % of control | dose: 4.0 mg/kg/injection, schedule: Q01DX015 (ip), vehicle: carboxymethylcellulose (CMC) 102 % of control | dose: 8.0 mg/kg/injection, schedule: Q01DX015 (ip), vehicle: carboxymethylcellulose (CMC) 105 % of control

O=C(O)/C=C/c1ccc(Cl)cc1Cl
inactive: [14] 88 % of control | [2] 87 % of control

O=[N+]([O-])c1cc(S(=O)(=O)c2ccccc2)ccc1S(=O)(=O)c1ccccc1
inactive: dose: 50.0 mg/kg/injection, schedule: Q01DX005 (ip), vehicle: saline with Tween-80 99 % of control | dose: 100.0 mg/kg/injection, schedule: Q01DX005 (ip), vehicle: saline with Tween-80 94 % of control | dose: 400.0 mg/kg/injection, schedule: Q01DX005 (ip), vehicle: saline with Tween-80 89 % of control

O=C(O)C(=O)c1ccc(-c2ccccc2)cc1
inactive: dose: 5.0 mg/kg/injection, schedule: Q01DX Z (ip), vehicle: carboxymethylcellulose (CMC) 102 % of control | dose: 10.0 mg/kg/injection, schedule: Q01DX Z (ip), vehicle: carboxymethylcellulose (CMC) 100 % of control | dose: 20.0 mg/kg/injection, schedule: Q01DX Z (ip), vehicle: carboxymethylcellulose (CMC) 94 % of control | dose: 40.0 mg/kg/injection, schedule: Q01DX Z (ip), vehicle: carboxymethylcellulose (CMC) 100 % of control | dose: 75.0 mg/kg/injection, schedule: Q01DX001 (ip), vehicle: carboxymethylcellulose (CMC) 101 % of control | dose: 150.0 mg/kg/injection, schedule: Q01DX001 (ip), vehicle: carboxymethylcellulose (CMC) 101 % of control

O=C(O)CCC(NC(=O)/C=C/c1ccc([N+](=O)[O-])cc1)C(=O)O (configuration not stated)
inactive: [6] 107 % of control | [9] 88 % of control | [12] 91 % of control

c1cc2c(cc1C1SCSCS1)OCO2
inactive: [5] 98 % of control | [7] 96 % of control | [8] 92 % of control | [10] 98 % of control | [11] 90 % of control | [13] 98 % of control

CCOC(=O)c1[nH]c2c(OCC)nc(OCC)nc2c1Br
inactive: [15] 106 % of control | [16] 112 % of control | [17] 104 % of control | [18] 95 % of control

O=[N+]([O-])c1ccc(N2CCN(c3cccc(C(F)(F)F)c3)CC2)c([N+](=O)[O-])c1
inactive: [1] 105 % of control | dose: 200.0 mg/kg/injection, schedule: Q04DX003 (ip), vehicle: saline with Tween-80 102 % of control | [4] 100 % of control

O=C(Nc1ccc(Cl)c(Cl)c1)Oc1ccc2ccccc2c1
inactive: [5] 90 % of control | [7] 104 % of control | [8] 101 % of control | [10] 90 % of control | [11] 95 % of control | [13] 90 % of control

CC1CN1P(=O)(Oc1cccc2ccccc12)N1CC1C (configuration not stated)
inactive: [15] 96 % of control | [16] 100 % of control | dose: 178.0 mg/kg/injection, schedule: Q01DX001 (ip), vehicle: saline 101 % of control and 109 % of control | [17] 113 % of control | dose: 267.0 mg/kg/injection, schedule: Q01DX001 (ip), vehicle: saline 101 % of control and 103 % of control | [18] 101 % of control and 104 % of control | dose: 600.0 mg/kg/injection, schedule: Q01DX001 (ip), vehicle: saline 110 % of control and 116 % of control

Cc1c(C(=O)O)nnn1-c1ccccc1
inactive: dose: 75.0 mg/kg/injection, schedule: Q01DX001 (ip), vehicle: saline 97 % of control | dose: 150.0 mg/kg/injection, schedule: Q01DX001 (ip), vehicle: saline 96 % of control

OC(Cc1cnc2ccccc2n1)(C(F)(F)F)C(F)(F)F
inactive: [14] 98 % of control | [2] 94 % of control | [3] 95 % of control
